Data reported in PMC4559766 (Scientific Reports, 2015).
Several values for one entry are separate records, joined by “and”; a condition that tells them apart may be missing. Identical values can stand only once.

Key:
Du145 transplanted tumor [1] = assay: Microvessel density of removed tumors (anti-CD31 immunohistochemistry, Weidner method); assay type: in vivo, BALB/c-nu/nu nude mice; settings: tumors removed after 4 weeks of administration, anti-CD31, n = 6
Experimental: (§1) Four weeks after administration, the mice were executed, and the tumors of different groups were removed and fixed with 10% neutral formalin or 2.5% glutaraldehyde. The fixed tumor tissue slides were subjected to Hematoxylin-eosin (HE) staining, immunohistochemistry in which anti-CD31 antibody and biotin-labeled IgG were respectively used as the first and second antibody, and TEM analysis. The microvessel densitied (MVD) in different tumor tissues was calculated using the Weidner method.

[2] = target: T1, recombinant human TNFRI (hTNFRI) (Homo sapiens, UniProt P19438); assay: SPR binding affinity to hTNFR I (BIAcore 3000); settings: SPR and ITC
T1 construct: purchased Sino Biological Inc
T1 sequence (P19438 30-211 limits assumed): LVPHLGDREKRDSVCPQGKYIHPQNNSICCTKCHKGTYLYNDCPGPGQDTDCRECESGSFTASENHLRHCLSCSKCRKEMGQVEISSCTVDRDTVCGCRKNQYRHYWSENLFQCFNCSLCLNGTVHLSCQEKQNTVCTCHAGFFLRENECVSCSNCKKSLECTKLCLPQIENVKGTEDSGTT
From the text: (§2) BIAcore kinetic evaluation Ver. 4.1 software and Microcal ORIGIN Ver. 5.0 software were respectively used to determine the dissociation constant (KD).

HUVEC cells = assay: Proliferation inhibition of HUVEC cells (Cell Counting Kit-8); assay type: cell-based, human; settings: 20 nM, 48 hours
Experimental: (§3) Du145, Raji, K562, Eca109, HeLa, MCF-7, MDA-MB-231 cells or non-tumorigenic epithelial cells MCF10A and HUVEC cells in logarithmic growth phase were respectively seeded into 96-well plates with the number of 8000 cells per well and incubated for 24 hours. […] The cells were counted with Cell Counting Kit-8. The IC50 was calculated using SPSS 17.0-Logit.

Du145 cells [3] = assay: Cell cycle of Du145 cells, PI single staining-flow cytometry; assay type: cell-based, human; settings: 20 nM, 48 hours
Experimental: (§4) Du145 cells in logarithmic growth phase were seeded into 6-well plates with number of 3 × 10^5 cells per well.

[4] = Blood biochemical indexes of liver and kidney function in tumor-bearing nude mice; settings: serum at end of 4 weeks of administration, n = 6
Experimental: The blood was collected and centrifuged at the end of administration for 4 weeks. The serum was placed into eppendorf (EP) tube and immediately sent to the First Affiliated Hospital of Jinan University where several tests closely related to liver/kidney function were performed, and the blood biochemical indexes AST, ALT, AST/ALT, ALB, GLB, ALB/GLB, DBILI, IBILI, TBILI, BUN and CREA were obtained.

[5] = target: T2, recombinant human TNFRII (hTNFRII) (Homo sapiens, UniProt P20333); assay: SPR binding affinity to hTNFR II (BIAcore 3000); settings: SPR and ITC
T2 construct: purchased Sino Biological Inc
T2 sequence (P20333 23-257 limits assumed): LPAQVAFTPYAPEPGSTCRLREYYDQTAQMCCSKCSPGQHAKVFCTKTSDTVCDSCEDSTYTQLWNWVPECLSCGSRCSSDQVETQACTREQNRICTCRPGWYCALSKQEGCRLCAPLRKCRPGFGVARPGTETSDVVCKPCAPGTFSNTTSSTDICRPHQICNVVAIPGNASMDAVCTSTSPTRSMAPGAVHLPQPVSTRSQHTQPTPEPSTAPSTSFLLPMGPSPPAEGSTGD
From the text: as §2

[6] = tested on: chick chorioallantoic membrane; assay: Chick chorioallantoic membrane model of angiogenesis; assay type: in vivo; settings: 72 hours at 37 °C
Experimental: Thirty fertilized chick embryos were randomly divided into five groups and incubated in the thermostatic incubator at 37 °C for six days (blunt end up). Drill a small window about 1 cm × 1 cm on the eggshell on the gas chamber side of chick embryo, meanwhile, also drill a small hole at the gas chamber, so that an artificial gas chamber was formed at the window. After removing the shell and shell membrane, the chicken chorioallantoic membrane (CAM) was exposed. […] The window was sealed with transparent tape, and chick embryos were incubated at 37 °C for 72 hours in thermostatic incubator.

Du145 transplanted tumor [7] = assay: TEM of removed tumors, cells with typical apoptosis characteristic; assay type: in vivo, BALB/c-nu/nu nude mice; settings: TEM of tumors removed after 4 weeks of administration
Experimental: as §1

[8] = Pharmacokinetics in BALB/c mice after intravenous injection
Experimental: Blood samples were collected by eye bleed from three mice at per time point prior to dosing and from 0.5 to 24 hours postdosing, and the plasma portion was analyzed by using an electrospray ionization, LC/MS/MS method described previously[48]. […] Tri (2-carboxyethyl) phosphine hydrochloride (TCEP) was used as a reducing agent to enhance peptide recovery and was added to all samples at a final concentration of 2 mM. After removing the plasma proteins through adding acetonitrile and centrifugation, the supernatant was transferred to another 96-well plate. Samples were analyzed by LC/MS/MS. Pharmacokinetic parameters were fitted to a two-compartment elimination model, and drug exposure (AUC), elimination half-life (t1⁄2), volume of distribution (Vd) and the clearance (CL) were calculated using WinNonlin Ver.

[9] = target: T3, human TNFRI of ML-la cells (Homo sapiens, UniProt P19438); assay: Competition receptor binding assay, [125I]TNF α displacement from TNFRI; parameters: unit not given beside the values
T3 construct: ML-la cells (a human myelomonoblastic leukemia cell line, 1 × 10^6 cells/well) were preincubated with either anti-p60 antibody or anti-p80 antibody; endogenous in cells; host or cells: ML-la (ML-1a) human myelomonoblastic leukemia cells
T3 sequence (P19438 30-455): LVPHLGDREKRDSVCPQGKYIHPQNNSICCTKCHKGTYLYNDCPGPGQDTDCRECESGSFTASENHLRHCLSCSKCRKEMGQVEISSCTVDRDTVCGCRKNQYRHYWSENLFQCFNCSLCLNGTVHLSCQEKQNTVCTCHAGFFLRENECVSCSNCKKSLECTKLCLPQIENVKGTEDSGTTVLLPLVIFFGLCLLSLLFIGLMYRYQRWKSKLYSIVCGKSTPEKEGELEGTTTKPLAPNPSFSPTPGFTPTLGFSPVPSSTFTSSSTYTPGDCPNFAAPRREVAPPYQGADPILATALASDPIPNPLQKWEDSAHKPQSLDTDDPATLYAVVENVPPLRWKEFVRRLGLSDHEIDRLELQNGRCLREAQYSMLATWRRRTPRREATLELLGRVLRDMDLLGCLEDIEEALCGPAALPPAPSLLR
Experimental: Free iodine was removed by gel filtration on a G-25 column equilibrated with phosphate-buffered saline containing 0.1% gelatin. […] Thereafter cells were washed three times with 150 μl of ice-cold phosphate-buffered saline containing 0.1% bovine serum albumin. Then each well was cut from the plate with a scissors, and cell-bound radioactivity was determined by an Apec-Series […] (ICN Biomedicals, Inc., Costa Mesa, CA)[51].

Du145 cells [10] = assay: Apoptosis of Du145 cells, Annexin V-FITC/PI double staining-flow cytometry; assay type: cell-based, human
Experimental: as §4

Du145 transplanted tumor [11] = assay: Subcutaneous Du145 transplanted tumor in nude mice; assay type: in vivo, BALB/c-nu/nu nude mice; settings: tail vein once a day for 4 weeks; 0.1 ml of 40 nM RMP16 or P16, estramustine 60 mg/kg; by average tumor weight versus NaCl group; n = 6
Experimental: Thirty male 4-week-old BALB/c-nu/nu nude mice (17–19 g), were divided into five groups. CK group (blank control) was the mice which were not inoculated Du145 cells, and the remaining four groups received inoculation of Du145 cells. 0.2 ml of Du145 cells suspension with the concentration of 1.5 × 10^7 cells/ml was injected subcutaneously into the right side of back of nude mice. […] The weights and volumes of tumors in different groups were measured once every four days, and tumor growth curves for each group were plotted.

[12] = tested on: human mammary non-tumorigenic epithelial cells MCF10A; assay: Proliferation of non-tumorigenic epithelial cells MCF10A (Cell Counting Kit-8); assay type: cell-based; settings: 20–900 nM, 48 hours
Experimental: as §3

Factor Xa = assay: In vitro factor Xa enzyme digestion half-life; assay type: in vitro ADME; settings: FXa 0.112 unit, 37 °C, 0-48 hours, HPLC-ESI-MS
Experimental: FXa (0.112 unit) were added into the mixture. After being thoroughly mixed, the mixture was divided into six aliquots to six PCR tubes and hydrolyzed at 37 °C in dark for 48 hours. Samples were respectively obtained at different time points (0, 12, 24, 36 and 48 hours) and each of samples was boiled for 5 minutes to quench the reaction and centrifuged.

[13] = BALB/c, mouse, plasma, iv, 5 mg/kg

Compound: CC[C@H](C)[C@H](NC(=O)[C@H](CCCNC(=N)N)NC(=O)[C@H](CO)NC(=O)[C@@H](NC(=O)[C@@H](NC(=O)[C@H](Cc1c[nH]cn1)NC(=O)[C@@H](NC(=O)[C@H](CC(C)C)NC(=O)[C@H](CC(C)C)NC(=O)[C@H](CCCNC(=N)N)NC(=O)CNC(=O)[C@H](CCC(=O)O)NC(=O)[C@@H](NC(=O)[C@H](Cc1c[nH]c2ccccc12)NC(=O)[C@H](CO)NC(=O)[C@H](CO)NC(=O)[C@@H]1CCCN1C(=O)[C@H](CCCNC(=N)N)NC(=O)[C@H](CCC(N)=O)NC(=O)[C@H](Cc1c[nH]c2ccccc12)NC(=O)[C@@H](N)CCSC)[C@@H](C)CC)[C@@H](C)O)[C@@H](C)O)[C@@H](C)CC)C(=O)N[C@@H](C)C(=O)N[C@H](C(=O)N[C@@H](CO)C(=O)N[C@@H](Cc1ccc(O)cc1)C(=O)N[C@@H](CCC(N)=O)C(=O)N[C@H](C(=O)N[C@@H](CCCCN)C(=O)N[C@H](C(=O)N[C@@H](CC(N)=O)C(=O)N[C@@H](CC(C)C)C(=O)N[C@@H](CC(C)C)C(=O)O)C(C)C)[C@@H](C)O)C(C)C [RMP16]
- microvessel density (MVD) (Du145 transplanted tumor [1]): 6.4 ± 0.62
- binding affinity for hTNFRI higher than that for hTNFRII [2]: ~410 times
- bound less strongly to hTNFRI than did TNF α [2]: ~4.5 times
- effect on proliferation of HUVEC (HUVEC cells): significantly inhibited the proliferation
- increase of Du145 cells remaining in G0/G1 phase (Du145 cells [3]): 13.1%
- reduction of Du145 cells remaining in S phase and G2/M phase (Du145 cells [3]): 12.9%
- ALB [4]: 17.2 ± 0.2 g/L
- ALT [4]: 100.5 ± 20.5 U/L
- AST [4]: 154 ± 28 U/L
- CREA [4]: 10.5 ± 0.5 µM
- DBILI [4]: 3 ± 0.7 µM
- GLB [4]: 41.7 ± 1 g/L
- IBILI [4]: 9.25 ± 0.55 µM
- TBILI [4]: 12.25 ± 0.15 µM
- bound less strongly to hTNFRII than did TNF α [5]: ~6600 times
- vessel branch points, dose of 2 μg ([6]; 2 μg on filter membrane, n = 6): 28.02 ± 1.37
- inhibition rate of angiogenesis, 2 μg ([6]; 2 μg on filter membrane, versus NaCl group): 54.13 ± 5.13%
- vessel branch points, dose of 4 μg ([6]; 4 μg on filter membrane, n = 6): 12.31 ± 2.95
- inhibition rate of angiogenesis, 4 μg ([6]; 4 μg on filter membrane, versus NaCl group): 79.94 ± 4.64%
- percent of the tumor cells with typical apoptosis characteristic (Du145 transplanted tumor [7]): about 79.6%
- AUC [8, 13]: 1360 µg·h/mL
- Vd [8, 13]: 0.0695 L/kg
- clearance [8, 13]: 3.68 mL/h/kg
- half-life [8, 13]: 13.1 h
- half-life in mice ([8]; in mice, as stated in abstract): 13.11 h
- IC50 of displacing [125I]TNF α from TNFRI as multiple of that from TNFRII [9]: 1/400
- increase of apoptosis rate for Du145 cells (Du145 cells [10]; 20 nM, 48 h, Annexin V-FITC/PI flow cytometry, versus PBS): 14.21%
- cell pro-apoptotic effect after TNFRI blocking (Du145 cells [10]; Du145 cells pre-incubated with 100 nM H398 (TNFRI-selective inhibitor) for 30 minutes at 37 °C before 20 nM RMP16): disappeared
- tumor inhibition rate (Du145 transplanted tumor [11]): ~80% and 78.11%
- effect on proliferation of MCF10A cells [12]: not significant effect
- factor Xa enzyme digestion half-life in the presence of HSA (Factor Xa; 10 μM peptide in PBS with 2 μM HSA): 15.83 h
- half-life at 10 μM (Factor Xa; factor Xa (FXa) enzyme digestion in PBS without HSA, 10 μM peptide in PBS without HSA, read-out: factor Xa enzyme digestion half-life in the absence of HSA (converted)): 9.72 h
